Measured values taken from ChEMBL document CHEMBL3879888, “2,4,6-triamino-1,3,5-triazine derivative” (2008).
The source made the active and inactive calls. The calls are words filed in the database; no cut-off is given here.

What was measured:
[1] = molecular target: T1, Voltage-gated inwardly rectifying potassium channel KCNH3 (Homo sapiens) (UniProt Q9ULD8); test: Inhibition of BEC1 (unknown origin) expressed in dihydrofolate reductase-deficient CHO cells assessed as decrease in KCl-induced intracellular 86Rb ion release at 3 uM after 20 mins relative to control; format: cell-based
T1 sequence (whole entry): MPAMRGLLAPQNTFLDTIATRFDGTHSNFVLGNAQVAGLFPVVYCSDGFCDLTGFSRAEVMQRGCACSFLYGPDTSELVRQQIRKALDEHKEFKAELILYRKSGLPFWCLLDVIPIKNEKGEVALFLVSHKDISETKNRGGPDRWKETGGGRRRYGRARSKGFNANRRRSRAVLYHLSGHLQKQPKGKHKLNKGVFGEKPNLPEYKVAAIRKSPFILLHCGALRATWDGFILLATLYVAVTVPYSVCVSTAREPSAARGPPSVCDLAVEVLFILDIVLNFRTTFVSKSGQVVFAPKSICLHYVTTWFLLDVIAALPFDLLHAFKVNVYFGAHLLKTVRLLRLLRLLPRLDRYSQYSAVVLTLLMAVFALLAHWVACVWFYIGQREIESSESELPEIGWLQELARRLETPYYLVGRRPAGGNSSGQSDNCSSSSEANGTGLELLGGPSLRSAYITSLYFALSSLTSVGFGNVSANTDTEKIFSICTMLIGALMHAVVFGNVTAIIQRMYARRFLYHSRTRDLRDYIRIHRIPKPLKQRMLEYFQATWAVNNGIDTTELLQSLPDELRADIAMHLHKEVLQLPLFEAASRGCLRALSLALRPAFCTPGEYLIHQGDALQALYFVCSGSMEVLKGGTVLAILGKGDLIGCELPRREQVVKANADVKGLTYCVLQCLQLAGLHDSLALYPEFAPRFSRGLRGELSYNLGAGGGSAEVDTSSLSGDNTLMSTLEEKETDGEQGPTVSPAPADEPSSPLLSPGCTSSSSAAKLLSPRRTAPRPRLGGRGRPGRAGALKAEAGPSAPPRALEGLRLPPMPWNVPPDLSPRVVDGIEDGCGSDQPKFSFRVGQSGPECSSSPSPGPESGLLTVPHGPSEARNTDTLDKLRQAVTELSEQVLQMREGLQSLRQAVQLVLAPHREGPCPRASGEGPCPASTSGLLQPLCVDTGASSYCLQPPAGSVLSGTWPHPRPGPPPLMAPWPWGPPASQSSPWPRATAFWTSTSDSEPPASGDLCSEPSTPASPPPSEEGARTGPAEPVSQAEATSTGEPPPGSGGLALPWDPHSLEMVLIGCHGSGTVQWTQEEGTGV

Mus musculus = test: Inhibition of electroconvulsive shock-induced amnesia in ddy mouse at 3 mg/kg, ip by passive avoidance test; format: functional, organism-based

| Structure (SMILES) | inhibition [1] [%] | inhibition (Mus musculus) |
| --- | --- | --- |
| O=C1NCCCCC1Nc1nc(Nc2ccccc2)nc(Nc2ccccc2)n1 (stereo not drawn) | 23 |  |
| Fc1cccc(CNc2nc(Nc3ccccc3)nc(Nc3ccccc3)n2)c1 | 34 |  |
| Cc1ccc(CNc2nc(Nc3ccccc3)nc(Nc3ccccc3)n2)cc1 | 35 |  |
| c1ccc(Nc2nc(NCCc3cccs3)nc(Nc3ccccc3)n2)cc1 | 10 |  |
| OC[C@@H](CNc1nc(Nc2ccccc2)nc(Nc2ccccc2)n1)c1ccccc1 | 50 |  |
| c1ccc(Nc2nc(Nc3ccccc3)nc(NC3CCCC3)n2)cc1 | 19 |  |
| CC(C)Nc1nc(Nc2ccccc2)nc(Nc2ccc(F)cc2)n1 | 25 |  |
| Fc1ccc(Nc2nc(NCc3ccnc(F)c3)nc(Nc3ccccc3)n2)cc1 |  | Active |
| Clc1ccc(CNc2nc(Nc3ccccc3)nc(Nc3ccccc3)n2)cc1 | 45 |  |
| CSC1CCC[C@H]1Nc1nc(Nc2ccccc2)nc(Nc2ccccc2)n1 (stereo partly drawn) | 34 |  |
| NC(=O)CNc1nc(Nc2ccccc2)nc(Nc2ccccc2)n1 | 22 |  |
| COc1ccc(CNc2nc(Nc3ccccc3)nc(Nc3ccccc3)n2)cc1 | 31 |  |
| Cc1cnc(CNc2nc(Nc3ccccc3)nc(Nc3ccccc3)n2)cn1 | 29 |  |
| OCCc1ccccc1Nc1nc(Nc2ccccc2)nc(Nc2ccccc2)n1 | 40 |  |
| CSc1ccc(Nc2nc(Nc3ccc(SC)cc3)nc(NC(C)C)n2)cc1 | 10 |  |
| Cc1c(O)cccc1Nc1nc(Nc2ccccc2)nc(Nc2ccccc2)n1 | 37 |  |
| CCOC(=O)CCCNc1nc(Nc2ccccc2)nc(Nc2ccccc2)n1 | 29 |  |
| C=CCNc1nc(Nc2ccccc2)nc(Nc2ccccc2)n1 | 44 |  |
| Cc1ccc([N+](=O)[O-])cc1Nc1nc(Nc2ccccc2)nc(Nc2ccccc2)n1 | 22 |  |
| OC1CCCCC1Nc1nc(Nc2ccccc2)nc(Nc2ccccc2)n1 (stereo not drawn) | 23 |  |
| CSC1COC[C@H]1Nc1nc(Nc2ccccc2)nc(Nc2ccccc2)n1 (stereo partly drawn) | 49 |  |
| O=[N+]([O-])c1ccc(CCNc2nc(Nc3ccccc3)nc(Nc3ccccc3)n2)cc1 | 33 |  |

Now from value to compound, other results behind:

| inhibition [1] [%] | Structure (SMILES) | inhibition (Mus musculus) |
| --- | --- | --- |
| 59 | c1ccc(Nc2nc(NCc3cccnc3)nc(Nc3ccccc3)n2)cc1 |  |
| 40 | CC(C)Nc1nc(Nc2ccccc2)nc(Nc2ccc3c(c2)OCCO3)n1 |  |
| 33 | Brc1ccc(CNc2nc(Nc3ccccc3)nc(Nc3ccccc3)n2)cc1 |  |
| 15 | c1ccc(Nc2nc(Nc3ccccc3)nc(Nc3ccc4c(c3)OCCO4)n2)cc1 |  |
| 33 | Fc1ccccc1CNc1nc(Nc2ccccc2)nc(Nc2ccccc2)n1 |  |
| 11 | CC(C)Nc1nc(Nc2ccc(Br)cc2)nc(Nc2ccc(Br)cc2)n1 |  |
| 18 | CC(C)Nc1nc(Nc2ccccc2)nc(Nc2ccc3c(c2)CCC3)n1 |  |
| 12 | O=[N+]([O-])c1cccc(Nc2nc(Nc3ccccc3)nc(Nc3ccccc3)n2)c1 |  |
| 27 | CC(C)Nc1nc(Nc2ccccc2)nc(Nc2ccc(Br)cc2)n1 |  |
| 10 | O=C1NCCCC[C@@H]1Nc1nc(Nc2ccccc2)nc(Nc2ccccc2)n1 |  |
| 36 | CCOC(=O)C(C)Nc1nc(Nc2ccccc2)nc(Nc2ccccc2)n1 (stereo not drawn) |  |
| 31 | Cc1cc(O)ccc1Nc1nc(Nc2ccccc2)nc(Nc2ccccc2)n1 |  |
| 11 | CC(C)Nc1nc(Nc2ccc3c(c2)OCCO3)nc(Nc2ccc3c(c2)OCCO3)n1 |  |
| 51 | c1ccc(Nc2nc(NCC3CC3)nc(Nc3ccccc3)n2)cc1 |  |
| 21 | CCOC(=O)CNc1nc(Nc2ccccc2)nc(Nc2ccccc2)n1 |  |
| 17 | CSc1ccccc1Nc1nc(Nc2ccccc2)nc(Nc2ccccc2)n1 |  |
